From US20250034151A1, “WEE1 INHIBITOR, PREPARATION THEREFOR, AND USE THEREOF” (JIANGSU TASLY DIYI PHARMACEUTICAL CO., LTD., priority 2022, published 2025)
Read-outs that look alike come from different tables or passages of the source.

Assays:
Wee1 protein = target: T1, Wee1 protein (Homo sapiens, UniProt P30291); assay: Binding of compound to Wee1 protein and Tracer 178 by TR-FRET (Wee1 kinase inhibitory activity); conditions: 15 nM WEE1, 50 nM Tracer 178, read-out: IC50 (inhibitory activity against Wee1 kinase)
T1 construct: purchased Thermo Fisher PR7373A
T1 sequence (P30291 whole entry): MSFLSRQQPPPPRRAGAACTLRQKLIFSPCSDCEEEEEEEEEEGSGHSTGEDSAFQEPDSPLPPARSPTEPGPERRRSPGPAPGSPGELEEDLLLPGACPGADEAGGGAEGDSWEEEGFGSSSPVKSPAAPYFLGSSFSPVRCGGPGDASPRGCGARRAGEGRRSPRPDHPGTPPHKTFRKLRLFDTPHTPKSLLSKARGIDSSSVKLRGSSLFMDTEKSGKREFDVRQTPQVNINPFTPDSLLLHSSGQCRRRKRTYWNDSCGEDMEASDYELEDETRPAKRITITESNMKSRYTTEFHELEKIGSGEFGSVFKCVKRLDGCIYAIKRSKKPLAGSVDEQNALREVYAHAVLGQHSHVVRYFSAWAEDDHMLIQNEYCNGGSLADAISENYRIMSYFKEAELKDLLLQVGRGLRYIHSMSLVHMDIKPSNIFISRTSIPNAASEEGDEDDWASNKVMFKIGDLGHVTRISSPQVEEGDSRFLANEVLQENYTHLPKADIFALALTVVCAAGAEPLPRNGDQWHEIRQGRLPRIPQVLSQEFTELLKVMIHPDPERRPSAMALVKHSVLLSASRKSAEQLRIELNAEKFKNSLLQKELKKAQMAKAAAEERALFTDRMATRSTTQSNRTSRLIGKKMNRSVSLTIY
Description: First, solutions of the compounds in different concentration gradients were prepared. The compounds were dissolved in DMSO and the compounds were diluted 4 folds with a total of 10 dose points and 2 parallel replicates for each concentration.
The IC50 for inhibition of enzyme activity by the compounds was then calculated using GraphPad Prism 6 and fitted with a log (inhibitor) vs. response-Variable slope mode. The fitting equation was: Y=Bottom+(Top−Bottom)/(1+10^((Log IC50−X)*HillSlope)), wherein Y represents the percentage of residual enzyme activity known and X represents the known concentration of compound after the logarithm.

H1299 cells = assay: Anti-proliferative effect on H1299 cells by Cell Titer-Glo; type: cell-based; conditions: 3 days
Description: (§1) Test Example 2: Evaluation of Cell Proliferation Inhibitory Activity
1. Evaluation of the Anti-Proliferative Effect of Compounds on H1299 Cells by the Cell Titer-Glo Method
(§2) Compound solutions of different concentration gradients were prepared. […] The cell growth group without compound was used as a positive control (maximum signal control) and the medium was used as a negative control (minimum signal control), while ensuring that the final level of DMSO in each reaction well was 0.2%. After removing the medium from the 384-well plate, 25 ul of the configured compound at different concentrations was transferred into the well plate and the compound and cells were incubated in the cell incubator at 37° C. with 5% CO2 for 3 days.
(§3) The 384-well plates were removed from the cell incubator and allowed to equilibrate for 1h to room temperature. 25 ul of Cell Titer-Glo assay was added to each well, lysed on a shaker for 2 min and then read out (Luminescence) using a BMG PHERAStar after 10 min incubation. Calculate the inhibition rate from the luminescence signal: first calculate the average of the positive control (maximum signal control) and the negative control (minimum signal control).
(§4) was used to calculate the rate of inhibition of the cells by different concentrations of the compounds. The IC50 of the compound on cell activity inhibition was calculated by fitting a log(inhibitor) vs. response-Variable slope model to GraphPad Prism 6. The fitted equation was: Y=Bottom+(Top−Bottom)/(1+10^((Log IC50−X)*HillSlope)), where Y represents the rate of inhibition and X represents the concentration of the known compound after Log.
(§5) The results of the in vitro anti-cell proliferation assays of H1299 and MIA Paca-2 for the example compounds according to the method described above are shown in Table 2, wherein the IC50 of each compound was determined and classified according to the description as follows: […]

MIA PaCa2 cells = assay: Anti-proliferative effect on MIA PaCa2 cells by Cell Titer-Glo; type: cell-based; conditions: Homo sapiens, MIA PaCa-2, 72 h, 3 days, read-out: MIA PaCa 2 (IC50, inhibition of proliferation in vitro)
Description: as §1
2. Evaluation of the Anti-Proliferative Effect of Compounds on MIA PaCa2 Cells by the Cell Titer-Glo Method
as §2
as §3, with “1 h” for “1h”
as §4, with “Y=Bottom+(Top-Bottom)/(1+10^((Log” for “Y=Bottom+(Top−Bottom)/(1+10^((Log”, “wherein” for “where”
as §5

[1] = Liver microsomes in vitro stability (mouse); type: in vitro ADME; conditions: read-out: T1/2/min
Description: 1. Preparation of Working Solution:
Microsomes were taken out from the −80° C. refrigerator, rapidly melted in a 37° C. water bath and placed on ice until ready to use. The test article was diluted with DMSO to prepare a 10 mM stock solution, and then diluted with acetonitrile to a 0.5 mM secondary stock solution. […] NADPH was diluted with Buffer C to a working solution of 6 mM for the starter solution. An acetonitrile solution containing an internal standard was prepared as the precipitant, and Verapamil-HCl was chosen as the internal standard at a concentration of 4 ng/ml.
2. Experimental Procedure:
A round-bottom well plate was taken, noted as the reaction plate, and the prepared working solution for each compound was dispensed into the well plate according to the number of replicates and time points (0 h samples were also added to the reaction plate), 30 μL/well; the plate was incubated at 37° C. for 10 min. A separate plate with pointed bottom wells, noted as a precipitation plate, was added with 135 μL precipitant per well; 0 h samples were transferred to the plate after 10 min incubation and 15 μL of starter solution was added; the plate was placed on ice before centrifugation.
The diluted starter solution was added in sufficient quantity to the dispensing plate to facilitate the multichannel pipette aspiration operation.
The reaction was carried out on a warm incubation shaker and 15 μL of starter solution/sample is added to the plate using a multichannel pipette. The reaction was mixed with a slight shake to initiate the reaction, which was accurately timed and recorded using a timer. In general, samples with shorter reaction times are initiated late and vice versa early, allowing sufficient time for multiple plate manipulation to terminate the reaction. For example, as for the four experiments of 5, 15, 30, and 60 min, the 60 min experiment was started first, and the 5 min experiment was started later, so as to leave sufficient time for the 5 min group.
After the reaction time had elapsed, all the solution in the plate was aspirated using the multichannel pipette and added to the precipitation plate to terminate the reaction at that point in time. After all reactions had been terminated, the plates were shaken for ten minutes on a plate shaker at 600 rpm to precipitate the protein. The plate was centrifuged at 4° C. for 15 minutes at maximum rpm. 80 μL of supernatant was taken, 320 μL of pure water was added and mixed for LC-MS analysis.

[2] = Homo sapiens, NCI-H1299, 72 h, read-out: H1299 (IC50, inhibition of proliferation in vitro)

Structure (SMILES)	IC50 (Wee1 protein)	IC50 (H1299 cells; [2])	IC50 (MIA PaCa2 cells)	half-life at 1 µM [1]	IC50 (H1299 cells; listed as Compound61, read-out: H1299 (IC50, inhibition of proliferation in vitro))
C=CCn1c(=O)c2cnc(Nc3ccc(N4C5CCC4CN(C)C5)cc3)nc2n1-c1cccc(C(C)(C)O)n1 [Compound 25]	0.005 to 0.01 µM	1 to 2 µM	1 to 2 µM	14.1 min	
C=CCn1c(=O)c2cnc(Nc3ccc(N4CCN(C5CN6CCC5CC6)CC4)cc3)nc2n1-c1cccc(N=S(C)(C)=O)n1 (stereo not shown) [Compound 11]	0.005 to 0.01 µM	0.1 to 1 µM	0.1 to 1 µM	110 min	
C=CCn1c(=O)c2cnc(Nc3ccc4c(c3)C(=O)N(C3CCN(C)CC3)C4)nc2n1-c1cccc(N=S(C)(C)=O)n1 [Compound 24]	0.01 to 0.1 µM	5 to 10 µM	0.1 to 1 µM	> 120 min	
C=CCn1c(=O)c2cnc(Nc3ccc4c(c3)CN(C3CCN(C)CC3)C4=O)nc2n1-c1cccc(N=S(C)(C)=O)n1 [Compound 15]	0.005 to 0.01 µM	> 10 µM	2 to 5 µM	> 120 min	
C=CCn1c(=O)c2cnc(Nc3ccc(N4CCC(N5CC6CC5CN6C)CC4)cc3)nc2n1-c1cccc(C(C)(C)O)n1 (stereo not shown) [Compound 18]	0.005 to 0.01 µM	2 to 5 µM	0.1 to 1 µM	> 120 min	
C=CCn1c(=O)c2cnc(Nc3ccc(N4CC5CC(C4)N5C)cc3)nc2n1-c1ccc2oc(=O)n(CC)c2c1 [Compound 54]	0.005 to 0.01 µM	2 to 5 µM	2 to 5 µM	77 min	
C=CCn1c(=O)c2cnc(Nc3ccc(C(=O)N(C)C4CN5CCC4CC5)cc3)nc2n1-c1cccc(C(C)(C)O)n1 (stereo not shown) [Compound 62]	0.005 to 0.01 µM	1 to 2 µM	0.1 to 1 µM	25.1 min	
C=CCn1c(=O)c2cnc(Nc3ccc(N4CC5CCC(C4)N5C)cc3)nc2n1-c1cccc(C(C)(C)O)n1 [Compound 28]	0.005 to 0.01 µM	0.1 to 1 µM	0.1 to 1 µM	15 min	
C=CCn1c(=O)c2cnc(Nc3ccc(N4CC5CC(CN(CCF)C5)C4)cc3)nc2n1-c1cccc(C(C)(C)O)n1 [Compound 37]	0.01 to 0.1 µM	2 to 5 µM	0.1 to 1 µM	21.7 min	
C=CCn1c(=O)c2cnc(Nc3ccc(N4CC5CC(CN(C)C5)C4)cc3)nc2n1-c1cccc(C(C)(C)O)n1 [Compound 23]	0.01 to 0.1 µM	> 10 µM	2 to 5 µM	38.7 min	
C=CCn1c(=O)c2cnc(Nc3ccc(N4CCC(N(C)C5CN6CCC5CC6)CC4)cc3)nc2n1-c1cccc(N=S(C)(C)=O)n1 (stereo not shown) [Compound 8]	0.005 to 0.01 µM	5 to 10 µM		> 120 min	
C=CCn1c(=O)c2cnc(Nc3ccc(C4CC45C(=O)C4CCN5CC4)cc3)nc2n1-c1cccc(C(C)(C)O)n1 (stereo not shown) [Compound 32]	0.01 to 0.1 µM	2 to 5 µM	2 to 5 µM		
C=CCn1c(=O)c2cnc(Nc3ccc(N(C)[C@@H]4CN5CCC4CC5)cc3)nc2n1-c1cccc(C(C)(C)O)n1 [Compound 19]	< 0.005 µM	> 10 µM	> 10 µM	48.1 min	
C=CCn1c(=O)c2cnc(Nc3ccc(N4CC5CC(C4)N5C)cc3)nc2n1-c1ccc2c(c1)C(C)(O)CO2 (stereo not shown) [Compound 57]	0.01 to 0.1 µM	> 10 µM	> 10 µM	43.9 min	
C=CCn1c(=O)c2cnc(Nc3ccc(N4C[C@H]5C[C@@H](C4)N5C)cc3)nc2n1-c1cccc(N=S(C)(C)=O)n1 [Compound 39]	< 0.005 µM	0.1 to 1 µM	≤ 0.1 µM	> 120 min	
C=CCn1c(=O)c2cnc(Nc3ccc(N4C[C@H]5C[C@@H]4CO5)cc3)nc2n1-c1cccc(C(C)(C)O)n1 [Compound 20]	0.005 to 0.01 µM	0.1 to 1 µM	1 to 2 µM		
C=CCn1c(=O)c2cnc(Nc3ccc(N4CC5CC(C4)N5C)cc3)nc2n1-c1ccc2cnn(CC)c2n1 [Compound 61]	< 0.005 µM			> 120 min	2 to 5 µM
C=CCn1c(=O)c2cnc(Nc3ccc(N4CC5CC(C4)N5CCOC)cc3)nc2n1-c1cccc(C(C)(C)O)n1 [Compound 67]	0.005 to 0.01 µM	0.1 to 1 µM	≤ 0.1 µM		
C=CCn1c(=O)c2cnc(Nc3ccc(N4CC5CC(C4)N5C4COC4)cc3)nc2n1-c1cccc(C(C)(C)O)n1 [Compound 58]	0.005 to 0.01 µM	0.1 to 1 µM	0.1 to 1 µM		
C=CCn1c(=O)c2cnc(Nc3ccc(N4CC5CC(C4)N5C)c(F)c3)nc2n1-c1cccc(C(C)(C)O)n1 [Compound 78]	0.01 to 0.1 µM	> 10 µM	1 to 2 µM		
C=CCn1c(=O)c2cnc(Nc3ccc(-c4cc(=O)[nH]c5c4N4CCC5CC4)cc3)nc2n1-c1cccc(C(C)(C)O)n1 [Compound 16]	0.01 to 0.1 µM	> 10 µM	> 10 µM		
C=CCn1c(=O)c2cnc(Nc3ccc(N4CC5CC4CN5C4CCN(C)CC4)c(C)c3)nc2n1-c1cccc(C(C)(C)O)n1 (stereo not shown) [Compound 21]	0.01 to 0.1 µM	1 to 2 µM	0.1 to 1 µM		
C=CCn1c(=O)c2cnc(Nc3ccc([C@@H]4C[C@]45C(=O)C4CCN5CC4)cc3)nc2n1-c1cccc(N=S(C)(C)=O)n1 [Compound 47b]	0.01 to 0.1 µM	2 to 5 µM	2 to 5 µM		
C=CCn1c(=O)c2cnc(Nc3ccc(C4CC45C(=O)C4CCN5CC4)cc3)nc2n1-c1cccc(N=S(C)(C)=O)n1 (stereo not shown) [Compound 47]	< 0.005 µM	0.1 to 1 µM	0.1 to 1 µM		
